According to patent US10703746B2, “Mutant IDH1 inhibitors useful for treating cancer” (THE UNITED STATES OF AMERICA, AS REPRESENTED BY THE …, priority 2014, dated 2020):

Experiments:
[1] = target: IDH1 R132C (Homo sapiens, UniProt O75874, R132C); assay: IDH1 R132C enzymatic assay (NADPH depletion coupled to diaphorase/resazurin); type: biochemical
Outline: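 NADPH depletion, read via diaphorase/resazurin coupling, after adding substrate at 0.6 mM α-KG and 0.012 mM NADPH. Beforehand, 0.00032 mg/mL enzyme sat with compound 30 min at room temperature in pH 6.5 potassium phosphate buffer with MgCl2, glycerol and BSA.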

[2] = target: IDH1 R132H (Homo sapiens, UniProt O75874, R132H); assay: IDH1 R132H enzymatic assay (NADPH depletion coupled to diaphorase/resazurin); type: biochemical
[3] = IDH1 R132C enzymatic inhibition, IC50 class
[4] = IDH1 R132H enzymatic inhibition, IC50 class
[5] = enzymatic inhibition, IDH1 R132C
[6] = enzymatic inhibition, IDH1 R132H

IDH1 R132H, sequence (O75874 whole entry R132H): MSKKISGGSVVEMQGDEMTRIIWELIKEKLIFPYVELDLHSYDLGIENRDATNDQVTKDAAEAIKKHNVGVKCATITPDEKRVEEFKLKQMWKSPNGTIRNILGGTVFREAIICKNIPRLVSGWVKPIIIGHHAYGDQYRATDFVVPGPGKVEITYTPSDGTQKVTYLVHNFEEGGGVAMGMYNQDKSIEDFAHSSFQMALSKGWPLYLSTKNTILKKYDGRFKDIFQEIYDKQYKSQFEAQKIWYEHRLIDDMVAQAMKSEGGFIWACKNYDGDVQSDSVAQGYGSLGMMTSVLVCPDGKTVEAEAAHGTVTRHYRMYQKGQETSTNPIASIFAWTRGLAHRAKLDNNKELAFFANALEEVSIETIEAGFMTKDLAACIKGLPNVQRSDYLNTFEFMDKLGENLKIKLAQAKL
IDH1 R132C, sequence (O75874 whole entry R132C): as the sequence (O75874 whole entry R132H) above, with H132C counted along it

SMILES | IC50 [1, 3] | IC50 [2, 4] | IC50 [1, 5] | IC50 [2, 6]
CCc1cccc(CC)c1-n1c2c(cc(-c3nc(-c4cnn(C)c4)c(C)s3)c1=O)C(=O)CC(C)(C)C2 [Compound 239] | 1000 to 5000 nM | 1000 to 5000 nM |  | 
COc1ccc(OC)c(-n2c3c(cc(-c4cccc(-c5ccc(Cl)cc5)n4)c2=O)C(=O)CC(C)(C)C3)c1 [Compound 284] | 5000 to 20000 nM | 5000 to 20000 nM |  | 
CCc1cccc(CC)c1-n1c(C)c(C(=O)NCCO)cc(-c2nc(-c3ccc(Cl)cc3)cs2)c1=O [Compound 153] | 1000 to 5000 nM | 300 to 1000 nM |  | 
CCc1cccc(CC)c1-n1c(C)c(C(=O)N(C)C)cc(-c2nc(-c3ccc(Cl)cc3)cs2)c1=O [Compound 271] | 1000 to 5000 nM | 1000 to 5000 nM |  | 
CCc1cccc(CC)c1-n1c2c(cc(-c3nc(-c4ccccc4C)cs3)c1=O)C(=O)CC(C)(C)C2 [Compound 173] | 1000 to 5000 nM | 1000 to 5000 nM |  | 
O=C1CCCc2c1cc(-c1nc(-c3ccc(Cl)cc3)cs1)c(=O)n2-c1ccccc1CN1CCOCC1 [Compound 339] | 1000 to 5000 nM | 5000 to 20000 nM |  | 
CCc1cccc(CC)c1-n1c(CC(C)C)c(C(=O)N2[C@H](C)CNC[C@@H]2C)cc(-c2nc(-c3ccc(Cl)cc3)cs2)c1=O [Compound 61] | < 300 nM | 300 to 1000 nM |  | 
CCc1cccc(CC)c1-n1c(C(C)C)c(C(=O)N2CCN[C@@H](C)C2)cc(-c2nc(-c3ccc(Cl)cc3)cs2)c1=O [Compound 234] | 300 to 1000 nM | 1000 to 5000 nM |  | 
CCc1cccc(CC)c1-n1c(C(C)C)c(C(=O)N2CCNC(C(=O)O)C2)cc(-c2nc(-c3ccc(Cl)cc3)cs2)c1=O (centres unmarked) [Compound 88] | < 300 nM | < 300 nM |  | 
CCc1cccc(CC)c1-n1c(C)c(C(=O)N2CCCNCC2)cc(-c2nc(-c3ccc(Cl)cc3)cs2)c1=O [Compound 66] | 300 to 1000 nM | 300 to 1000 nM |  | 
COc1ccc(OC)c(-n2c3c(cc(-c4cccc(-c5ccc(Cl)cc5)c4)c2=O)C(=O)CC(C)(C)C3)c1 [Compound 111] | 5000 to 20000 nM | > 20000 nM |  | 
CCc1cccc(CC)c1-n1c(CC(C)C)c(C(=O)N2CCNCC2)cc(-c2nc(-c3ccc(Cl)cc3)cs2)c1=O [Compound 231] | < 300 nM | < 300 nM |  | 
CCc1cccc(CC)c1-n1c(C)c(C(=O)N2CCN[C@@H](C(=O)OC)C2)cc(-c2nc(-c3ccc(Cl)cc3)cs2)c1=O [Compound 83] | 300 to 1000 nM | 1000 to 5000 nM |  | 
CCc1cccc(CC)c1-n1c(C)c(C(=O)NC2CCC(N)CC2)cc(-c2nc(-c3ccc(Cl)cc3)cs2)c1=O (centres unmarked) [Compound 237] | 5000 to 20000 nM | 5000 to 20000 nM |  | 
CCc1cccc(CC)c1-n1c(C=C(C)C)c(C(=O)N2CCNCC2)cc(-c2ccn(-c3ccc(Cl)cc3)n2)c1=O [Compound 349] | < 300 nM | < 300 nM |  | 
CCc1cccc(CC)c1-n1c(CC(C)C)c(C(=O)N2CCNCC2)cc(-c2nc(-c3ccc(C#N)cc3)c(C)s2)c1=O [Compound 235] | < 300 nM | < 300 nM |  | 
CCc1cccc(CC)c1-n1c(C(C)C)c(C(=O)N2CCNC(CO)C2)cc(-c2nc(-c3ccc(Cl)cc3)cs2)c1=O (centres unmarked) [Compound 84] | < 300 nM | 300 to 1000 nM |  | 
CC1(C)CC(=O)c2cc(-c3nc(-c4ccc(Cl)cc4)cs3)c(=O)n(-c3ccccc3C(F)(F)F)c2C1 [Compound 57] | < 300 nM | 300 to 1000 nM |  | 

SMILES | IC50 [1, 3] | IC50 [2, 4] | IC50 [1, 5] | IC50 [2, 6]
CC(C)c1ccccc1-n1c2c(cc(-c3nc(-c4ccc(Cl)cc4)cs3)c1=O)C(=O)CC(C)(C)C2 [Compound 178] | 300 to 1000 nM | 300 to 1000 nM |  | 
CCc1cccc(CC)c1-n1c(C)c(C(=O)NCCN)cc(-c2nc(-c3ccc(Cl)cc3)cs2)c1=O [Compound 303] | 1000 to 5000 nM | 300 to 1000 nM |  | 
COc1ccc(OC)c(-n2c(=O)c(-c3nc(-c4ccc(Cl)cc4)cs3)cc3c(O)cccc32)c1 [Compound 68] | > 20000 nM | > 20000 nM |  | 
CCc1cccc(CC)c1-n1c(CC(C)C)c(C(=O)N2CCNCC2)cc(-c2nc(-c3ccc(Cl)nc3)c(C)s2)c1=O [Compound 405] |  |  | < 300 nM | < 300 nM
CCc1cccc(CC)c1-n1c(C)c(C(=O)N2CCCCC2)cc(-c2nc(-c3ccc(Cl)cc3)cs2)c1=O [Compound 156] | 1000 to 5000 nM | 1000 to 5000 nM |  | 
CCc1cccc(CC)c1-n1c2c(cc(-c3nc(-c4cnc(C)nc4)c(C)s3)c1=O)C(=O)CC(C)(C)C2 [Compound 161] | 1000 to 5000 nM | 5000 to 20000 nM |  | 
CCc1cccc(CC)c1-n1c(C)c(C(=O)NC2CCNC2)cc(-c2nc(-c3ccc(Cl)cc3)cs2)c1=O (centres unmarked) [Compound 99] | 300 to 1000 nM | 1000 to 5000 nM |  | 
CCc1cccc(CC)c1-n1c(CC(C)C)c(C(=O)NC2CCCCC2O)cc(-c2nc(-c3ccc(Cl)cc3)cs2)c1=O (centres unmarked) [Compound 159] | 1000 to 5000 nM | 1000 to 5000 nM |  | 
CCc1cccc(CC)c1-n1c2c(cc(-c3nc(-c4ccc(O)cc4)cs3)c1=O)C(=O)CC(C)(C)C2 [Compound 281] | 5000 to 20000 nM | 5000 to 20000 nM |  | 
CCc1cccc(CC)c1-n1c2c(cc(-c3nc(-c4ccc(OC)cc4)cs3)c1=O)C(=O)CC(C)(C)C2 [Compound 183] | 300 to 1000 nM | 300 to 1000 nM |  | 
CC1(C)CC(=O)c2cc(-c3nc(-c4ccc(F)cc4)cs3)c(=O)n(-c3ccccc3C(F)(F)F)c2C1 [Compound 30] | 300 to 1000 nM | 300 to 1000 nM |  | 
CCc1cccc(CC)c1-n1c(CC(C)C)c(C(=O)N2CCNCC2)cc(-c2nc(-c3ccccc3)c(C)s2)c1=O [Compound 81] | 300 to 1000 nM | < 300 nM |  | 
CCc1ncc(C)cc1-n1c(C=C(C)C)c(C(=O)N2CCNCC2)cc(-c2nc(-c3ccc(Cl)cc3)cs2)c1=O [Compound 330] | 300 to 1000 nM | < 300 nM |  | 
CCc1cccc(CC)c1-n1c(C)c(C(=O)N2CCN[C@@H](CO)C2)cc(-c2nc(-c3ccc(Cl)cc3)cs2)c1=O [Compound 220] | 300 to 1000 nM | < 300 nM |  | 
CCc1cccc(CC)c1-n1c(C(C)C)c(C(=O)O)cc(-c2nc(-c3ccc(Cl)cc3)cs2)c1=O [Compound 98] | 5000 to 20000 nM | 1000 to 5000 nM |  | 
Cc1cccc(C)c1-n1c2c(cc(-c3nc(-c4ccc(Cl)cc4)cs3)c1=O)C(=O)CC(C)(C)C2 [Compound 215] | 1000 to 5000 nM | 1000 to 5000 nM |  | 
CC1(C)CC(=O)c2cc(-c3nc(-c4ccc(Cl)cc4)cs3)c(=O)n(-c3ccccc3N3CCOCC3)c2C1 [Compound 248] | 300 to 1000 nM | 1000 to 5000 nM |  | 

Results, then the molecule that gave them:

IC50 [1, 3] | IC50 [2, 4] | IC50 [1, 5] | IC50 [2, 6] | SMILES
 |  | < 300 nM | < 300 nM | COc1ccc(Cl)c(-n2c(C=C(C)C)c(C(=O)N3CCNCC3)cc(-c3nc(-c4ccc(Cl)cc4)cs3)c2=O)c1 [Compound 500]
 |  | 300 to 1000 nM | < 300 nM | CCOc1ncc(Cl)cc1-n1c(C=C(C)C)c(C(=O)N2CCNCC2)cc(-c2nc(-c3ccc(C(F)F)nc3)cs2)c1=O [Compound 580]
 |  | 300 to 1000 nM | 300 to 1000 nM | CCc1cccc(CC)c1-n1c2c(cc(-c3nc(-c4ccc(Cl)cc4)cs3)c1=O)C(=O)N1CCCCC21 (centres unmarked) [Compound 610]
 |  | < 300 nM | 300 to 1000 nM | CCc1cccc(CC)c1-n1c(CC(C)C)c(C(=O)N2CCNCC2)cc(-c2nc(-c3ccc(Cl)cc3)c(Br)s2)c1=O [Compound 601]
> 20000 nM | > 20000 nM |  |  | O=C1CCCc2c1cc(-c1nc(-c3ccc(Cl)cc3)cs1)c(=O)n2-c1ccc(CO)cc1 [Compound 649]
 |  | 300 to 1000 nM | < 300 nM | CCOc1ncc(Cl)cc1-n1c(C=C(C)C)c(C(=O)N2CCNCC2)cc(-c2nc(-c3ccc(C(F)F)cc3)cs2)c1=O [Compound 407]
 |  | 300 to 1000 nM | 1000 to 5000 nM | CC1(C)CC(=O)c2cc(-c3nc(-c4ccc(Cl)cc4)cs3)c(=O)n(-c3cc(Cl)ccc3Cl)c2C1 [Compound 522]
 |  | < 300 nM | < 300 nM | CCOc1ccc(-n2ccc(-c3cc(C(=O)N4CCNCC4)c(C=C(C)C)n(-c4c(CC)cccc4CC)c3=O)n2)cc1 [Compound 552]
 |  | < 300 nM | 300 to 1000 nM | CCc1cccc(CC)c1-n1c(C=C(C)C)c(C(=O)N2CCC3(CNC3)C2)cc(-c2nc(-c3ccc(Cl)cc3)cs2)c1=O [Compound 519]
 |  | 1000 to 5000 nM | > 20000 nM | O=c1c(-c2nc(-c3ccc(Cl)cc3)cs2)cc2c(O)cccc2n1-c1cccnc1 [Compound 514]
< 300 nM | < 300 nM |  |  | CCc1cccc(OC)c1-n1c(C=C(C)C)c(C(=O)N2CCNCC2)cc(-c2nc(-c3ccc(Cl)cc3)cs2)c1=O [Compound 642]
< 300 nM | < 300 nM |  |  | CCc1cccc(CC)c1-n1c(CC(C)C)c(C(=O)N2CCNCC2)cc(-c2nc(-c3ccc(C(F)(F)F)cc3)cs2)c1=O [Compound 654]
 |  | 300 to 1000 nM | < 300 nM | CCc1ccc(F)cc1-n1c(C=C(C)C)c(C(=O)N2CCNCC2)cc(-c2nc(-c3ccc(C(F)(F)F)nc3)cs2)c1=O [Compound 424]
300 to 1000 nM | 300 to 1000 nM |  |  | CCOc1ccc(Cl)cc1-n1c(CC(C)C)c(C(=O)N2CCNCC2)cc(-c2nc(-c3ccc(C(F)F)cc3)cs2)c1=O [Compound 687]
 |  | < 300 nM | < 300 nM | CC(C)=Cc1c(C(=O)N2CCNCC2)cc(-c2nc(-c3ccc(Cl)cc3)cs2)c(=O)n1-c1c(F)cccc1OC(C)C [Compound 494]
 |  | < 300 nM | < 300 nM | CCc1ccc(Cl)cc1-n1c(C=C(C)C)c(C(=O)N2CCNCC2)cc(-c2nc(-c3ccc(C(F)F)cc3)cs2)c1=O [Compound 571]
 |  | > 20000 nM | > 20000 nM | Cc1[nH]c(=O)c(-c2nc(-c3ccc(Cl)cc3)cs2)cc1C(=O)N1CCNCC1 [Compound 595]
 |  | < 300 nM | < 300 nM | CCCC1CN(C(=O)c2cc(-c3nc(-c4ccc(Cl)cc4)cs3)c(=O)n(-c3c(CC)cccc3CC)c2C=C(C)C)CCN1 (centres unmarked) [Compound 542]
 |  | 5000 to 20000 nM | 5000 to 20000 nM | CCc1ccc(N2CCN(C)CC2)c(CC)c1-n1c2c(cc(-c3nc(-c4ccc(Cl)cc4)cs3)c1=O)C(=O)CC(C)(C)C2 [Compound 406]
< 300 nM | < 300 nM |  |  | CCOc1ccc(C)cc1-n1c(CC(C)C)c(C(=O)N2CCNCC2)cc(-c2nc(-c3ccc(C(F)F)cc3)cs2)c1=O [Compound 685]
